In US12319648B2, “Fluorinated phenylacetic acid derivatives in a weed control method” (SYNGENTA CROP PROTECTION AG, priority 2019, dated 2025):

What was measured:
Assay type in all cases: in vivo
[1] = tested on: Amaranthus retoflexus (AMARE); assay: Post-emergence herbicidal glasshouse test; conditions: post-emergence, 250 g/ha, 13 days after application
Method: (§1) Seeds of a variety of test species are shown in standard soil in pots Amaranthus retoflexus (AMARE), Ipomoea hederacea (IPOHE), Solanum nigrum (SOLNI), Lolium perenne (LOLPE). Echinochloa crus-galli (ECHCG), Setaria faberi (SETFA)). After cultivation for one day (pre-emergence) or after 8 days cultivation (post-emergence) under controlled conditions in a glasshouse (at 24/16° C., day/night; 14 hours light; 65% humidity), the plants are sprayed with an aqueous spray solution derived from the formulation of the technical active ingredient in acetone/water (50:50) solution containing 0.5% Tween 20 (polyoxyethylene sorbitan monolaurate, CAS RN 9005-64-5). Compounds are applied at 250 g/ha unless otherwise stated. The test plants are then grown in a glasshouse under controlled conditions in a glasshouse (at 24/16° C., day/night; 14 hours light; 65% humidity) and watered twice daily. After 13 days for pre and post-emergence, the test is evaluated for the percentage damage caused to the plant. The biological activities are shown in the following table on a five-point scale (5=81-100%; 4=61-80%; 3=41-60%; 2=21-40%; 1=0-20%).
(§2) Using the experimental conditions outlined above, a further test is conducted to compare the herbicidal properties of the difluro containing compound (1.014) with a representative compound (C1) referred to in GB901553. The compounds are applied at 1000 g/ha and 500 g/ha. The test is evaluated for the percentage damage caused to the plant (% phytotoxicity).

[2] = tested on: Echinochloa crus-galli (ECHCG); assay: Post-emergence herbicidal glasshouse test; conditions: post-emergence, 250 g/ha, 13 days after application
Method: as §1, §2

[3] = tested on: Ipomoea hederacea (IPOHE); assay: Post-emergence herbicidal glasshouse test; conditions: post-emergence, 250 g/ha, 13 days after application
Method: as §1, §2

[4] = tested on: Lolium perenne (LOLPE); assay: Post-emergence herbicidal glasshouse test; conditions: post-emergence, 250 g/ha, 13 days after application
Method: as §1, §2

[5] = tested on: Setaria faberi (SETFA); assay: Post-emergence herbicidal glasshouse test; conditions: post-emergence, 250 g/ha, 13 days after application
Method: as §1, §2

[6] = tested on: Solanum nigrum (SOLNI); assay: Post-emergence herbicidal glasshouse test; conditions: post-emergence, 250 g/ha, 13 days after application
Method: as §1, §2

[7] = tested on: Amaranthus retoflexus (AMARE); assay: Pre-emergence herbicidal glasshouse test; conditions: pre-emergence, 250 g/ha, 13 days after application
Method: as §1, §2

[8] = tested on: Echinochloa crus-galli (ECHCG); assay: Pre-emergence herbicidal glasshouse test; conditions: pre-emergence, 250 g/ha, 13 days after application
Method: as §1, §2

[9] = tested on: Ipomoea hederacea (IPOHE); assay: Pre-emergence herbicidal glasshouse test; conditions: pre-emergence, 250 g/ha, 13 days after application
Method: as §1, §2

[10] = tested on: Lolium perenne (LOLPE); assay: Pre-emergence herbicidal glasshouse test; conditions: pre-emergence, 250 g/ha, 13 days after application
Method: as §1, §2

[11] = tested on: Setaria faberi (SETFA); assay: Pre-emergence herbicidal glasshouse test; conditions: pre-emergence, 250 g/ha, 13 days after application
Method: as §1, §2

[12] = tested on: Solanum nigrum (SOLNI); assay: Pre-emergence herbicidal glasshouse test; conditions: pre-emergence, 250 g/ha, 13 days after application
Method: as §1, §2

O=C(O)C(F)(F)c1c(Cl)ccc(Cl)c1Cl [Compound 1.001]
1 (1=0-20%): percentage damage caused to the plant, five-point scale, ECHCG [2] | percentage damage caused to the plant, five-point scale, LOLPE [4] | percentage damage caused to the plant, five-point scale, ECHCG [8] | percentage damage caused to the plant, five-point scale, LOLPE [10] | percentage damage caused to the plant, five-point scale, SETFA [11] | percentage damage caused to the plant, five-point scale, SOLNI [12]
5 (5=81-100%): percentage damage caused to the plant, five-point scale, AMARE [1] | percentage damage caused to the plant, five-point scale, AMARE [7]
3 (3=41-60%): percentage damage caused to the plant, five-point scale, SETFA [5] | percentage damage caused to the plant, five-point scale, IPOHE [9]
4 (4=61-80%): percentage damage caused to the plant, five-point scale, IPOHE [3] | percentage damage caused to the plant, five-point scale, SOLNI [6]

COC(=O)C(F)(F)c1c(Cl)ccc(Cl)c1Cl [Compound 1.002]
1 (1=0-20%): percentage damage caused to the plant, five-point scale, ECHCG [2] | percentage damage caused to the plant, five-point scale, LOLPE [4] | percentage damage caused to the plant, five-point scale, SETFA [5] | percentage damage caused to the plant, five-point scale, ECHCG [8] | percentage damage caused to the plant, five-point scale, IPOHE [9] | percentage damage caused to the plant, five-point scale, LOLPE [10] | percentage damage caused to the plant, five-point scale, SETFA [11] | percentage damage caused to the plant, five-point scale, SOLNI [12]
4 (4=61-80%): percentage damage caused to the plant, five-point scale, AMARE [1] | percentage damage caused to the plant, five-point scale, SOLNI [6] | percentage damage caused to the plant, five-point scale, AMARE [7]
2 (2=21-40%): percentage damage caused to the plant, five-point scale, IPOHE [3]

COC(=O)C(F)(F)c1ccc(Cl)cc1Cl [Compound 1.003]
2 (2=21-40%): percentage damage caused to the plant, five-point scale, SOLNI [12]
4 (4=61-80%): percentage damage caused to the plant, five-point scale, AMARE [7]
3 (3=41-60%): percentage damage caused to the plant, five-point scale, AMARE [1] | percentage damage caused to the plant, five-point scale, IPOHE [3] | percentage damage caused to the plant, five-point scale, SOLNI [6] | percentage damage caused to the plant, five-point scale, IPOHE [9]
1 (1=0-20%): percentage damage caused to the plant, five-point scale, ECHCG [2] | percentage damage caused to the plant, five-point scale, LOLPE [4] | percentage damage caused to the plant, five-point scale, SETFA [5] | percentage damage caused to the plant, five-point scale, ECHCG [8] | percentage damage caused to the plant, five-point scale, LOLPE [10] | percentage damage caused to the plant, five-point scale, SETFA [11]

O=C(O)C(F)(F)c1ccc(Cl)cc1Cl [Compound 1.004]
1 (1=0-20%): percentage damage caused to the plant, five-point scale, ECHCG [2] | percentage damage caused to the plant, five-point scale, LOLPE [4] | percentage damage caused to the plant, five-point scale, SETFA [5] | percentage damage caused to the plant, five-point scale, ECHCG [8] | percentage damage caused to the plant, five-point scale, LOLPE [10] | percentage damage caused to the plant, five-point scale, SETFA [11]
4 (4=61-80%): percentage damage caused to the plant, five-point scale, AMARE [1] | percentage damage caused to the plant, five-point scale, IPOHE [3] | percentage damage caused to the plant, five-point scale, SOLNI [6] | percentage damage caused to the plant, five-point scale, AMARE [7] | percentage damage caused to the plant, five-point scale, IPOHE [9]
3 (3=41-60%): percentage damage caused to the plant, five-point scale, SOLNI [12]

O=C(O)C(F)(F)c1cc(Cl)cc(Cl)c1 [Compound 1.007]
3 (3=41-60%): percentage damage caused to the plant, five-point scale, AMARE [1] | percentage damage caused to the plant, five-point scale, SOLNI [6]
1 (1=0-20%): percentage damage caused to the plant, five-point scale, ECHCG [2] | percentage damage caused to the plant, five-point scale, IPOHE [3] | percentage damage caused to the plant, five-point scale, LOLPE [4] | percentage damage caused to the plant, five-point scale, SETFA [5] | percentage damage caused to the plant, five-point scale, AMARE [7] | percentage damage caused to the plant, five-point scale, ECHCG [8] | percentage damage caused to the plant, five-point scale, IPOHE [9] | percentage damage caused to the plant, five-point scale, LOLPE [10] | percentage damage caused to the plant, five-point scale, SETFA [11] | percentage damage caused to the plant, five-point scale, SOLNI [12]

O=C(O)C(F)(F)c1ccccc1Cl [Compound 1.011]
3 (3=41-60%): percentage damage caused to the plant, five-point scale, IPOHE [3]
5 (5=81-100%): percentage damage caused to the plant, five-point scale, AMARE [1] | percentage damage caused to the plant, five-point scale, SOLNI [6] | percentage damage caused to the plant, five-point scale, AMARE [7]
2 (2=21-40%): percentage damage caused to the plant, five-point scale, SETFA [11]
1 (1=0-20%): percentage damage caused to the plant, five-point scale, ECHCG [2] | percentage damage caused to the plant, five-point scale, LOLPE [4] | percentage damage caused to the plant, five-point scale, SETFA [5] | percentage damage caused to the plant, five-point scale, ECHCG [8] | percentage damage caused to the plant, five-point scale, LOLPE [10]
4 (4=61-80%): percentage damage caused to the plant, five-point scale, IPOHE [9] | percentage damage caused to the plant, five-point scale, SOLNI [12]

O=C(O)C(F)(F)c1cc(Cl)ccc1Cl [Compound 1.012]
1 (1=0-20%): percentage damage caused to the plant, five-point scale, ECHCG [2] | percentage damage caused to the plant, five-point scale, LOLPE [4] | percentage damage caused to the plant, five-point scale, SETFA [5] | percentage damage caused to the plant, five-point scale, ECHCG [8] | percentage damage caused to the plant, five-point scale, LOLPE [10] | percentage damage caused to the plant, five-point scale, SETFA [11]
4 (4=61-80%): percentage damage caused to the plant, five-point scale, AMARE [1] | percentage damage caused to the plant, five-point scale, SOLNI [6] | percentage damage caused to the plant, five-point scale, AMARE [7]
3 (3=41-60%): percentage damage caused to the plant, five-point scale, IPOHE [3] | percentage damage caused to the plant, five-point scale, IPOHE [9] | percentage damage caused to the plant, five-point scale, SOLNI [12]

O=C(O)C(F)(F)c1cccc(Cl)c1Cl [Compound 1.039]
3 (3=41-60%): percentage damage caused to the plant, five-point scale, SETFA [5] | percentage damage caused to the plant, five-point scale, SOLNI [6] | percentage damage caused to the plant, five-point scale, LOLPE [10]
5 (5=81-100%): percentage damage caused to the plant, five-point scale, AMARE [1] | percentage damage caused to the plant, five-point scale, IPOHE [9]
4 (4=61-80%): percentage damage caused to the plant, five-point scale, IPOHE [3]
2 (2=21-40%): percentage damage caused to the plant, five-point scale, ECHCG [2] | percentage damage caused to the plant, five-point scale, SETFA [11]
1 (1=0-20%): percentage damage caused to the plant, five-point scale, LOLPE [4] | percentage damage caused to the plant, five-point scale, ECHCG [8]

O=C(O)C(F)(F)c1cccc(Cl)c1Cl [Compound 1.040]
1 (1=0-20%): percentage damage caused to the plant, five-point scale, LOLPE [4] | percentage damage caused to the plant, five-point scale, ECHCG [8] | percentage damage caused to the plant, five-point scale, LOLPE [10] | percentage damage caused to the plant, five-point scale, SETFA [11]
5 (5=81-100%): percentage damage caused to the plant, five-point scale, IPOHE [9]
2 (2=21-40%): percentage damage caused to the plant, five-point scale, ECHCG [2] | percentage damage caused to the plant, five-point scale, SOLNI [6]
3 (3=41-60%): percentage damage caused to the plant, five-point scale, IPOHE [3] | percentage damage caused to the plant, five-point scale, SETFA [5]
4 (4=61-80%): percentage damage caused to the plant, five-point scale, AMARE [1]
